Results on 26 compounds are retold here after ChEMBL document CHEMBL1137138, “Synthesis and antiviral activity of P1' arylsulfonamide azacyclic urea HIV protease inhibitors” (Bioorg Med Chem Lett, 2004).

Assay [1] in a line: Antiviral activity against HIV virus. It counts as functional.
Assay [2] can be described thus: Antiviral activity against HIV virus in presence of 50% human serum. It counts as functional.
Assay [3] can be described thus: Antiviral activity against HIV virus in absence of human serum. It counts as functional.
Assay [4] deals with Human immunodeficiency virus type 1 protease (Human immunodeficiency virus 1, UniProt Q72874). Kind of assay: Tested for inhibition of HIV protease.

For the compound `O=C1N(Cc2ccc(O)cc2)[C@H](Cc2ccccc2)[C@H](O)CN(S(=O)(=O)c2cccc(Cl)c2Cl)N1Cc1ccc(O)cc1`, the half-maximal effective concentration (EC50) (as a rule, the midpoint of the concentration-response curve) in assay [1] stood at 560 nM.

For the compound `CCCCN1C(=O)N(Cc2cccc(C(=N)NO)c2)[C@H](Cc2ccccc2)[C@H](O)CN1S(=O)(=O)c1cccc(C(C)=O)c1`, the results for the EC50 in assay [2] and in assay [3] were 1090 nM and 150 nM, respectively.

Turning to `CCCCN1C(=O)N(Cc2cccc(C(=N)NO)c2)[C@H](Cc2ccccc2)[C@H](O)CN1S(=O)(=O)c1cccc([N+](=O)[O-])c1`, the EC50 in assay [2] was 370 nM; in assay [3] it was 40 nM.

In turn, `O=C1N(Cc2ccc(O)cc2)[C@H](Cc2ccccc2)[C@H](O)CN(S(=O)(=O)c2ccc(Cl)cc2)N1Cc1ccc(O)cc1` came in with a concentration giving a half-maximal response (EC50) in assay [1] of 1100 nM.

`N#Cc1cccc(S(=O)(=O)N2C[C@@H](O)[C@@H](Cc3ccccc3)N(Cc3ccc(O)cc3)C(=O)N2Cc2ccc(O)cc2)c1` came in with a 50% effective concentration (EC50) in assay [1] of 200 nM.

For `CCCCN1C(=O)N(Cc2cccc(C(=N)NO)c2)[C@H](Cc2ccccc2)[C@H](O)CN1S(=O)(=O)c1cccc(N)c1`, the EC50 in assay [2] stood at 2380 nM; in assay [3] it was 30 nM.

Compound `O=C1N(Cc2ccc(O)cc2)[C@H](Cc2ccccc2)[C@H](O)CN(S(=O)(=O)c2cccc([N+](=O)[O-])c2)N1Cc1ccc(O)cc1` yielded an EC50 in assay [1] of 810 nM.

Turning to `CCCCN1C(=O)N(Cc2cccc(C(=N)NO)c2)[C@H](Cc2ccccc2)[C@H](O)CN1S(=O)(=O)c1cccc(/C(C)=N\O)c1`, the results for the EC50 in assay [2] and in assay [3] were 400 nM and 20 nM, respectively.

`O=C1N(Cc2ccc(O)cc2)[C@H](Cc2ccccc2)[C@H](O)CN(S(=O)(=O)c2ccc(C(F)(F)F)cc2)N1Cc1ccc(O)cc1` yielded an EC50 in assay [1] of 1100 nM.

As to `CCCCN1C(=O)N(Cc2cccc(C(=N)NO)c2)[C@H](Cc2ccccc2)[C@H](O)CN1S(=O)(=O)c1cccc(C(C)O)c1` (stereo not given in full), the half-maximal effective concentration (EC50) in assay [2] was found to be 850 nM; in assay [3], 40 nM.

In the case of `O=C1N(Cc2ccc(O)cc2)[C@H](Cc2ccccc2)[C@H](O)CN(S(=O)(=O)c2cccc(F)c2)N1Cc1ccc(O)cc1`, the EC50 in assay [1] was determined as 590 nM.

With `Cc1cccc(S(=O)(=O)N2C[C@@H](O)[C@@H](Cc3ccccc3)N(Cc3ccc(O)cc3)C(=O)N2Cc2ccc(O)cc2)c1`, the EC50 in assay [1] was 920 nM.

For `CCCCN1C(=O)N(Cc2cccc(C(=N)NO)c2)[C@H](Cc2ccccc2)[C@H](O)CN1S(=O)(=O)c1cccc(O)c1`, the EC50 in assay [2] came out at 2560 nM; in assay [3], 150 nM.

Regarding `O=C1N(Cc2ccc(O)cc2)[C@H](Cc2ccccc2)[C@H](O)CN(S(=O)(=O)c2cccc(Br)c2)N1Cc1ccc(O)cc1`, in assay [1], the concentration giving a half-maximal response (EC50) was determined as 420 nM.

As for `O=C1N(Cc2ccc(O)cc2)[C@H](Cc2ccccc2)[C@H](O)CN(S(=O)(=O)c2ccc(Cl)cc2Cl)N1Cc1ccc(O)cc1`, in assay [1], the response was half-maximal at 3200 nM (EC50).

`O=C1N(Cc2ccc(O)cc2)[C@H](Cc2ccccc2)[C@H](O)CN(S(=O)(=O)c2ccccc2)N1Cc1ccc(O)cc1` yielded an EC50 in assay [1] of 450 nM. Also, the Ki (usually the equilibrium dissociation constant of an inhibitor or competing ligand from its target) in assay [4] stood at 1.37 nM.

With `O=C1N(Cc2ccc(O)cc2)[C@H](Cc2ccccc2)[C@H](O)CN(S(=O)(=O)c2cc(Cl)cc(Cl)c2)N1Cc1ccc(O)cc1`, the EC50 in assay [1] turned out to be 670 nM.

`O=C1N(Cc2ccc(O)cc2)[C@H](Cc2ccccc2)[C@H](O)CN(S(=O)(=O)c2ccc(Cl)c(Cl)c2)N1Cc1ccc(O)cc1` showed a 50% effective concentration (EC50) in assay [1] of 940 nM.

`Cc1ccc(S(=O)(=O)N2C[C@@H](O)[C@@H](Cc3ccccc3)N(Cc3ccc(O)cc3)C(=O)N2Cc2ccc(O)cc2)cc1` returned a concentration for a half-maximal effect (EC50) in assay [1] of 870 nM.

As for `CCCCN1C(=O)N(Cc2cccc(C(=N)NO)c2)[C@H](Cc2ccccc2)[C@H](O)CN1S(=O)(=O)c1cccc(OC)c1`, the EC50 in assay [2] turned out to be 560 nM.

With `O=C(c1ccccc1)N1C[C@@H](O)[C@@H](Cc2ccccc2)N(Cc2ccc(O)cc2)C(=O)N1Cc1ccc(O)cc1`, in assay [4], affinity was put at a Ki of 0.01 nM.

As for `C=Cc1cccc(S(=O)(=O)N2C[C@@H](O)[C@@H](Cc3ccccc3)N(Cc3cccc(C(=N)NO)c3)C(=O)N2CCCC)c1`, the EC50 in assay [2] came out at 1860 nM; in assay [3], 220 nM.

As to `CCCCN1C(=O)N(Cc2cccc(C(=N)NO)c2)[C@H](Cc2ccccc2)[C@H](O)CN1S(=O)(=O)c1cccc(Br)c1`, the figures for the EC50 in assay [2] and in assay [3] were 2490 nM and 160 nM, respectively.

Take `Cc1ccccc1S(=O)(=O)N1C[C@@H](O)[C@@H](Cc2ccccc2)N(Cc2ccc(O)cc2)C(=O)N1Cc1ccc(O)cc1`: it took 230 nM to reach a half-maximal effect in assay [1] (EC50).

For the compound `COc1cccc(S(=O)(=O)N2C[C@@H](O)[C@@H](Cc3ccccc3)N(Cc3ccc(O)cc3)C(=O)N2Cc2ccc(O)cc2)c1`, a half-maximal effect in assay [1] (EC50) was put at 460 nM.

In the case of `COc1ccc(S(=O)(=O)N2C[C@@H](O)[C@@H](Cc3ccccc3)N(Cc3ccc(O)cc3)C(=O)N2Cc2ccc(O)cc2)cc1`, in assay [1], the EC50 was 750 nM.
